The values below come from PMC5656594 (Scientific Reports, 2017).

Values joined by “and” are separate entries in the source; they are usually repeats but may differ in a detail not shown here. Equal values may be shown once.

Assay [1] addresses T1, PFV IN complexed with various DNA sequences (Human spumaretrovirus, UniProt P14350).
T1 construct: The full-length wt IN^PFV, the three single mutants of the catalytic triad; His; made in house; host or cells: E. coli BL21-CodonPlus (DE3)-RIPL
Briefly: DTG binding to IN complexed with various DNA sequences, fluorescence intensity procedure. Further details: species or system prototype foamy virus (PFV). The following applies: for DTG-binding (%) Fluorescence intensity procedure: normalized by DNA#1, [IN]=[DNA]=1.8 μM, [DTG]=0.3 μM, 1 mM Mg2+. The protocol: All experiments were performed in the presence of 1 mM Mg^2+ (see Supplementary Fig. S4 for [Mg^2+] = 10 mM). λex = 345 nm and PMT = 980 V (Δλex = Δλem = 5 nm). […] Contributions of Raman and Rayleigh scattering were eliminated in the inset spectrum: (viii) = (iv)–(vii) where (vii) represents the proper spectrum of Mg^2+-DTG in the context of the binary IN-DNA complex. […] [Mg^2+] = 1 mM. Inset: fluorescence intensity (375–385 nm) as a function of (IN + DNA). The arrows indicate the intensity level after addition of 500 mM NaCl. Emission spectra are representative of 3 independent experiments for each condition of (IN + DNA). […] (E) Measurement of the binary IN-DNA complex formation. The formation of binary complexes was performed by monitoring the fluorescence anisotropy (r) of DNA (Fl-PFV^CAAT) under similar experimental conditions of the DTG-binding assay (panels C-D). Top, varying stoichiometric concentrations of IN and DNA were mixed and the r parameter was monitored. A constant concentration of Fl-DNA (0.3 μM) was maintained throughout the titration. […] Bottom, corresponding percentages of binary complexes as a function of (IN + DNA): % = (r–r0)/(rmax–r0)x100 where r0 and rmax correspond to anisotropy values of free DNA and IN-bound DNA, respectively. (F) Linear relationship between the percentages of ternary and binary complexes. […]
(§1) Fluorescence excitation and emission spectra of INSTIs were recorded on a Eclipse (Varian) spectrofluorimeter equipped with two polarizers for anisotropy measurements and a thermostated cell holder, using 80 µl solutions placed in micro cells (Hellma). Drug, IN and DNA concentrations, excitation/emission slit settings as well as the photomultiplier tube (PMT) voltage are specified in figure legends. The intensity value was corrected from the inner filter effect. The steady-state fluorescence anisotropy was calculated using: r = (IVV–G x IVH)/(IVV + 2GxIVH) where IVV and IVH correspond to vertical and horizontal components, respectively, when the sample is excited with vertically polarized light. G represents the correction factor for the difference in the monochromator transmission between // and ⊥ polarized components: G = IHV/IHH. All experiments were performed at 25 °C in buffer A: 20 mM Tris pH 7.2, 50 mM NaCl, 1 mM DTT and 10% (v/v) DMSO.

Assay [2] has as its target T2, D185N IN^PFV-DNA complex (Human spumaretrovirus, UniProt P14350, D936N).
T2 construct: The pET-IN-PFV plasmid containing the full-length IN gene was used for mutagenesis; His; made in house; host or cells: E. coli BL21-CodonPlus (DE3)-RIPL
Briefly: Fluorescence enhancement DTG-binding assay, D185N catalytic mutant. Further details: species or system prototype foamy virus (PFV). The following applies: 1 mM Mg2+. The protocol: The fluorescence intensity was monitored as a function of (IN + DNA) and plotted as a function of the binary IN-DNA complex concentration (measured as explained in Fig. 2E legend). […] (B) The percentage of ternary complexes was calculated using DTG fluorescence enhancement. […] The graphs in panels A-B show representative data of three independent experiments. […] "DTG" is taken from the y-axis title of the same panel.
To note, Mg^2+ is dispensable for the overall DNA-binding step of IN[32],[43]–[45] and thus, the loss of Mg^2+ chelation is not contradictory with results showing that catalytic mutants bind equally well to DNA and in a similar manner than wt IN (Supplementary Fig. S6). However, G187R cannot be considered as a catalytic mutant since it sustains a significant ST activity although weak (≈10% of the wt activity; Fig. 6).
Fluorescence excitation and emission spectra of INSTIs were recorded on a Eclipse (Varian) spectrofluorimeter equipped with two polarizers for anisotropy measurements and a thermostated cell holder, using 80 µl solutions placed in micro cells (Hellma). […] The steady-state fluorescence anisotropy was calculated using: r = (IVV–G x IVH)/(IVV + 2GxIVH) where IVV and IVH correspond to vertical and horizontal components, respectively, when the sample is excited with vertically polarized light. […]

Assay [3] concerns the target T3, G187R IN^PFV-DNA complex (Human spumaretrovirus, UniProt P14350, G938R/G968S/S969G).
T3 construct: The pET-IN-PFV plasmid containing the full-length IN gene was used for mutagenesis; His; made in house; host or cells: E. coli BL21-CodonPlus (DE3)-RIPL
Briefly: Fluorescence enhancement DTG-binding assay, G187R mutant. The following applies: DTG 0.3 μM, 1 mM Mg2+. Further details: species or system prototype foamy virus (PFV). The protocol: The fluorescence intensity was monitored as a function of (IN + DNA) and plotted as a function of the binary IN-DNA complex concentration (measured as explained in Fig. 2E legend). […] The graphs in panels A-B show representative data of three independent experiments.
as §1

In assay [4] the test system is S217K IN^PFV mutant. The assay is classed as biochemical, prototype foamy virus (PFV). The following applies: S217K versus wt, ST activity.
Protocol: The graphs show representative data of three independent experiments. […] ST products were quantified as explained in the Methods section.
DNA#13 mimicking the 3′-processed end (Table 1) was radiolabeled with T4 polynucleotide kinase (NEB) and [γ-^32P]ATP (Amersham) and purified on a Sephadex G-10 column. The double-stranded DNA substrate was obtained by mixing equimolar amounts of ssDNA#13 with its 21-mer complementary strand in the presence of 100 mM NaCl. ST reactions were carried out at 37 °C with 200 or 300 nM IN in 20 mM HEPES pH 6.8, 1 mM DTT, 10 mM MgCl2 and 50 mM NaCl, in the presence of 12.5 nM DNA. After separation in a 16% acrylamide/urea denaturing gel, ST products were analyzed with a Typhoon TRIO variable mode imager (GE Healthcare) and quantified with ImageQuant TL software. ST activity was expressed as the % of the signal intensity of ST products divided by the signal intensity of the DNA substrate. […] IC50 values were determined using the Prism 5.0 software.
A short description of assay [5]: DTG-Mg2+ interaction, titration of DTG fluorescence emission enhancement as a function of [Mg2+]. It counts as physicochemical. The following applies: DTG 1 μM, λex 345 nm, buffer A, hyperbolic titration curve; read-out: Kd of the DTG-Mg^2+ interaction. The text has this:
Figure 1 Fluorescence properties of INSTIs in solution and influence of divalent cations. […] Corresponding excitation and emission spectra are shown in Supplementary Fig. S1. Excitation and emission slits: Δλex = Δλem = 5 nm (PMT = 750 V). The fluorescence enhancement factor corresponds to the drug fluorescence emission intensity for a given Mg^2+ concentration normalized by the intensity in the absence of Mg^2+. […] The emission intensity was reported as a function of [Mg^2+] (inset). […] The bar graphs in panels A and D show mean ± SD values from three independent experiments. […] Only [Mg2+] and λex: 345 nm appear in the panel, so the substance is left empty.
Furthermore, both drugs display a Mg^2+ dependence of fluorescence intensity, however with some differences. A slight increase of EVG fluorescence intensity was observed upon addition of Mg^2+ (a 3-fold increase for the two excitation modes from 0 to 10 mM Mg^2+; Fig. 1B). […] This Mg^2+-dependent enhancement is related to an increase of the fluorescence quantum yield since no Mg^2+-dependent change in the absorption spectrum was observed (Supplementary Fig. S2A).
Fluorescence excitation and emission spectra of INSTIs were recorded on a Eclipse (Varian) spectrofluorimeter equipped with two polarizers for anisotropy measurements and a thermostated cell holder, using 80 µl solutions placed in micro cells (Hellma). […]

One may read the Kd as the equilibrium constant for the complex coming apart. For `C[C@@H]1CCO[C@H]2Cn3cc(C(=O)NCc4ccc(F)cc4F)c(=O)c(O)c3C(=O)N12` [DTG, dolutegravir], the “DTG-binding (%) Fluorescence intensity procedure” value in assay [1] (DNA#1 (cognate)) is reported as 100%; in assay [1] (DNA#2), 83 ± 5%; in assay [1] (DNA#3) it was 89 ± 6%; in assay [1] (DNA#4), 84 ± 4%; in assay [1] (DNA#5), 101 ± 5%; in assay [1] (DNA#6) it was 76 ± 5%. The “DTG-binding (%) Fluorescence intensity procedure” value is on record as 20 ± 3% in assay [1] (DNA#7); 7 ± 2% in assay [1] (DNA#8); 9 ± 2% in assay [1] (DNA#9 (random sequence)); 23 ± 3% in assay [1] (DNA#10); 24 ± 2% in assay [1] (DNA#11); 72 ± 6% in assay [1] (DNA#12). Moreover, in assay [1] (DNA#13 (processed DNA product)), the “DTG-binding (%) Fluorescence intensity procedure” value came to 66 ± 4%. For the same compound, the “DTG binding activity, % of the binding activity obtained with DNA#1” value in assay [1] (DNA#12 (CAAT-3′→CAGT-3′), both procedures (text summary of Table 1)) is listed as 72–77%; in assay [1] (IN in complex with DNA#2→6 (text summary of Table 1)), over 76%. The “DTG binding to D185N catalytic mutant” value in assay [2] is “loss of DTG-binding”. In assay [3], the “DTG binding to G187R” value is on record as “No binding”. Also, the “decrease in DTG susceptibility” value in assay [4] is on record as “≈ 50 fold”. The Kd in assay [5] was ~1200 µM and 1000 to 2000 µM.
